Reference: patent publication US20260083701A1, “COMPOSITIONS, FORMULATIONS, AND METHODS FOR TREATMENT OF INFLAMMATORY CONDITIONS” (Oddity Labs, LLC, priority 2023, published 2026)

What was measured:
IL-4 receptor signaling = test: IL-4 signaling inhibition in HEK-Blue IL-4/IL-13 cells; type: cell-based, human; conditions: HEK-Blue IL-4/IL-13 cells stimulated with 1.25 ng/mL IL-4, co-culture with varying concentrations for 24 hours
Procedure: HEK-Blue IL-4/IL-13 cells are used to evaluate IL-4/IL-4R-alpha binding. HEK-Blue IL-4/IL-13 have been engineered to produce secreted alkaline phosphatase (SEAP) when exposed to IL-4 or IL-13 and have been previously used to identify IL-4 and IL-4R inhibitors. Compounds are tested with these cells at various dosages to evaluate dose dependent changes in IL-4/IL-4R-alpha binding inhibition. Full EC50 curves are generated for Tier1 compounds.
In the experiment, engineered HEK-Blue™ IL-4/IL-13 cells were stimulated with a dose of 1.25 ng/mL of IL-4 and then subjected to co-culture with varying concentrations of the compounds for a period of 24 hours. […] The provided data represent the mean±standard deviation of six technical replicates carried out across two experimental replicates.

IL-13 = test: Functional Th2-blocking activity: IL-13 expression in primary human Th2 cells (intracellular flow cytometry); type: cell-based; conditions: for Expression of Cytokine following Stimulation (% X Positive among CD4+ T cells) IL-13: 3 days co-culture with compound, PMA/ionomycin stimulation 6 hours; for % Normalized Reduction of Cytokine Expression From Baseline in CD4+ T Cells IL-13: normalized against vehicle control (water), 3 days co-culture, PMA/ionomycin 6 hours
Text: (§1) To produce T helper 2 (Th2) cells, peripheral blood mononuclear cells (PBMCs) were harvested from healthy donor leukopaks using Ficoll gradients. Naive CD4+ T cells were further isolated, then activated using TransAct or Dynabeads (depending on the donor). CD4+ T cells were activated for two days in the presence of low dose IL-2 (30 IU/mL) in X-VIVO-15 media containing 5% human AB serum (activation cycle). On the second day, the media was exchanged and supplemented with interleukin 4 (IL-4) (20 ng/mL), anti-IFN-gamma antibody (1 μg/mL), and interleukin 2 (IL-2) (rest cycle). The cells were cultured for an additional five days then evaluated for Prostaglandin D2 receptor 2 (DP2 or CRTH2) expression and IL-4 and interleukin 13 (IL-13) expression following phorbol myristate acetate (PMA)/ionomycin stimulation. If the expression of CRTH2 was >50%, the cells were frozen and used in Th2 IL-4/IL-13 bioactivity assays. If the expression of CRTH2 <50%, then the cells were restimulated using TransAct (or Dynabeads) and maintained on similar cycles of activation (2 days) and rest (5 days), until the expression of CRTH2 exceeded 50%. Typically, no more than 4 cycles are needed before the Th2 cells may be harvested and frozen.
(§2) For testing the ability of a compound or salt of the present disclosure to reduce the expression of IL-4 and IL-13 was tested in primary human Th2 cells, the abovementioned cells were thawed, then cultured for one day in IL-2 containing media. The Th2 cells were treated with compounds added at varying concentrations for three days, after which, the cells were washed, and stimulated with PMA/ionomycin for 6 hrs prior to readabout via intracellular flow cytometry.
(§3) The ability of a compound or salt of the present disclosure to reduce the expression of IL-4 and IL-13 was tested in primary human Th2 cells. Naive, primary human CD4+ T cells were isolated from healthy donors and differentiated into Th2 cells using a combination of IL-4 cytokine and anti-IFN-gamma antibody, based on a modified protocol from Scott et al (Activation of Th2 cells downregulates CRTh2 through an NFAT1 mediated mechanism. PLoS One. 2018 Jul. 3; 13(7):e0199156). Th2 cells were CRTH2+ and expressed IL-4 and IL-13 following PMA/ionomycin stimulation. Prior to PMA/ionomycin stimulation, Th2 cells were co-cultured with a compound or salt of the present disclosure for 3 days and then stimulated for 6 hours. Intracellular flow cytometry was performed to investigate the expression of IL-4 and IL-13 among stimulated CD4+ Th2 cells. The compound or salt was evaluated across a 2-log concentration range. Th2 cells were cultured in X-VIVO-15 media with human AB serum and supplemented with low dose IL-2 (30 IU/mL). The antibody panel that was used is listed below. All antibodies were obtained from Biolegend.
(§4) Description of Calculation for: (1) Expression of Cytokine following Stimulation (% X Positive among CD4+ T cells), and (2) % Normalized Reduction of Cytokine Expression From Baseline in CD4+ T Cells
(§5) The expression of IL-4 and IL-13 was measured based on positive gated fractions among CD4+ Th2 cells. The number is expressed as a positive percentage, determined based on the fluorescence-minus-one (FMO) control. The max percent is 100%. The normalized reduction value uses the vehicle control (water) to normalize against using the following percent change formula. (Cmpd: compound)

IL-4 = test: Functional Th2-blocking activity: IL-4 expression in primary human Th2 cells (intracellular flow cytometry); type: cell-based; conditions: for % Normalized Reduction of Cytokine Expression From Baseline in CD4+ T Cells IL-4: normalized against vehicle control (water), 3 days co-culture, PMA/ionomycin 6 hours; for % Normalized Reduction of Cytokine Expression From Baseline in CD4+ T Cells IL-4 / Expression of Cytokine following Stimulation (% X Positive among CD4+ T cells) IL-4: primary human CD4+ Th2 cells; for Expression of Cytokine following Stimulation (% X Positive among CD4+ T cells) IL-4: 3 days co-culture with compound, PMA/ionomycin stimulation 6 hours
Text: as §1, §2, §3, §4, §5

Compound: O=C(Nc1cccc(Cn2nc3ccccn3c2=O)c1)c1c[nH]n2c1nc(=O)c1ccccc12 [II-2, 5-oxo-N-(3-((3-oxo-[1,2,4]triazolo[4,3-a]pyridin-2(3H)-yl)methyl)phenyl)-1,5-dihydropyrazolo[1,5-a]quinazoline-3-carboxamide]
- IL-4 signaling inhibition (IL-4 receptor signaling): exception
- Expression of Cytokine following Stimulation (% X Positive among CD4+ T cells) IL-13 (IL-13): B (B represents 10% to less than 14%)
- % Normalized Reduction of Cytokine Expression From Baseline in CD4+ T Cells IL-13 (IL-13): D (D represents 50% or greater)
- Th2 activity (IL-4): suppressed Th2 activity
- % Normalized Reduction of Cytokine Expression From Baseline in CD4+ T Cells IL-4 (IL-4): B (B represents 15% to less than 20%)
- Expression of Cytokine following Stimulation (% X Positive among CD4+ T cells) IL-4 (IL-4): B (B represents 30% to less than 35%)

Compound: O=C(Nc1cccc(S(=O)(=O)NC2=NCCC2)c1)c1ccc(OCc2ccccc2)cc1 [III-1, 4-(benzyloxy)-N-{3-[(3,4-dihydro-2H-pyrrol-5-yl)sulfamoyl]phenyl}benzamide]
- IL-4 signaling inhibition (IL-4 receptor signaling): prominent IL-4 signaling inhibition
- Expression of Cytokine following Stimulation (% X Positive among CD4+ T cells) IL-13 (IL-13): B (B represents 10% to less than 14%)
- % Normalized Reduction of Cytokine Expression From Baseline in CD4+ T Cells IL-13 (IL-13): D (D represents 50% or greater)
- % Normalized Reduction of Cytokine Expression From Baseline in CD4+ T Cells IL-4 (IL-4): D (D represents 25% or greater)
- Expression of Cytokine following Stimulation (% X Positive among CD4+ T cells) IL-4 (IL-4): A (A represents 0% to less than 30%)
